The record followed here is US9024017B2, “Octahydro-cyclopentapyrrolyl antagonists of CCR2” (Janssen Pharmaceutica NV, priority 2012, dated 2015).

This assay deals with T1, CCR2 (Homo sapiens, UniProt P41597).
T1 construct: host or cells: THP-1 (human monocytic cell line)
T1 sequence (P41597 whole entry): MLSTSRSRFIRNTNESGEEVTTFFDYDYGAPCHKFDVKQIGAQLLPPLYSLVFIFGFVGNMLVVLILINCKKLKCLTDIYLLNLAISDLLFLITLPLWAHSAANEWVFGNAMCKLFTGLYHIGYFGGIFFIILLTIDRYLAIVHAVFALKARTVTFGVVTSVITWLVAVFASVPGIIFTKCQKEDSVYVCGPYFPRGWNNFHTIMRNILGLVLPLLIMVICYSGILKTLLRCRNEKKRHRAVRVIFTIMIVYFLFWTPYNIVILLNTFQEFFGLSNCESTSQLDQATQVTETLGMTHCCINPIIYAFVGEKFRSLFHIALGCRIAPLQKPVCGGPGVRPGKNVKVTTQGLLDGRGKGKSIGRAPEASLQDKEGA
The assay is described as follows: MCP-1 Receptor Binding Assay in THP-1 Cells. Conditions: read-out: MCP1B_v3 IC50. On the procedure:
Compounds of the invention were subjected to various representative biological tests. […] MCP-1 Receptor Binding Assay in THP-1 Cells Human monocytic cell line THP-1 cells were obtained from American Type Culture Collection (Manassas, Va., USA). The THP-1 cells were grown in RPMI-1640 (RPMI: Roswell Park Memorial Institute Medium-cell culture growth media) supplemented with 10% fetal bovine serum in a humidified 5% CO2 atmosphere at 37° C. The cell density was maintained between […].
THP-1 (cells were incubated with 0.5 nM ^125I labeled MCP-1 (Perkin-Elmer Life Sciences, Inc. Boston, Mass.) in the presence of varying concentrations of either unlabeled MCP-1 (R & D Systems, Minneapolis, Minn.) or test compound for 2 hours at 30° C. in a 96 well plate. Cells were then harvested onto a filter plate, dried, and 20 μL of Microscint 20 was added to each well. Plates were counted in a TopCount NXT, Microplate Scintillation & Luminescence Counter (Perkin-Elmer Life Sciences, Inc. Boston, Mass.). Blank values (buffer only) were subtracted from all values and drug treated values were compared to vehicle treated values. 1 μM cold MCP-1 was used for nonspecific binding.
A word on the IC50: it is the concentration at which inhibition is half-maximal. As for `COC1COCCC1N[C@@H]1C[C@H]2CN(C(N)=O)C[C@@]2(C(=O)N2CCc3ncc(C(F)(F)F)cc3C2)C1` (relative stereo) [Example 2, (3aR,5R,6aR)-5-(((3S*,4S*)-(3-Methoxytetrahydro-2H-pyran-4-yl)amino)-3a-(3-(trifluoromethyl)-5,6,7,8-tetrahydro-1,6-naphthyridine-6-carbonyl)hexahydrocyclopenta[c]pyrrole-2(1H)-carboxamide], the half-maximal inhibitory concentration (IC50) was 60 nM. As for `CO[C@@H]1COCC[C@H]1N[C@@H]1C[C@H]2CN(C(N)=O)C[C@@]2(C(=O)N2CCc3ncc(C(F)(F)F)cc3C2)C1` (relative stereo) [Example 5, (3aR,5R,6aR)-5-(((3S*,4R*)-(3-Methoxytetrahydro-2H-pyran-4-yl)amino)-3a-(3-(trifluoromethyl)-5,6,7,8-tetrahydro-1,6-naphthyridine-6-carbonyl)hexahydrocyclopenta-[c]pyrrole-2(1H)-carboxamide], the figure is 1350 nM; as for `COC1COCCC1N[C@@H]1C[C@H]2CN(C(N)=O)C[C@@]2(C(=O)N2CCc3ccc(C(F)(F)F)cc3C2)C1` (relative stereo) [Example 6, (3aR,5R,6aR)-5-(((3S*,4S*)-3-Methoxytetrahydro-2H-pyran-4-yl)amino)-3a-(7-(trifluoromethyl)-1,2,3,4-tetrahydroisoquinoline-2-carbonyl)hexahydrocyclopenta-[c]pyrrole-2(1H)-carboxamide], 10 nM. The same measure for `CCOC1COCCC1N[C@@H]1C[C@H]2CN(C(N)=O)C[C@@]2(C(=O)N2CCc3ncc(C(F)(F)F)cc3C2)C1` (relative stereo) [Example 9, (3aR,5R,6aR)-5-(((3S*,4S*)-3-Ethoxytetrahydro-2H-pyran-4-yl)amino)-3a-(3-(trifluoromethyl)-5,6,7,8-tetrahydro-1,6-naphthyridine-6-carbonyl)hexahydrocyclopenta-[c]pyrrole-2(1H)-carboxamide]: 190 nM; for `COC1COCCC1N[C@@H]1C[C@H]2CN(C(N)=O)C[C@@]2(C(=O)NCc2cccc(C(F)(F)F)c2)C1` (relative stereo) [Example 10, (3aR,5R,6aR)-5-(((3S*,4S*)-3-Methoxytetrahydro-2H-pyran-4-yl)amino)-N^3a-(3-(trifluoromethyl)benzyl)hexahydrocyclopenta[c]pyrrole-2,3a(1H)-dicarboxamide]: 320 nM.

As to `COC1COCCC1N[C@@H]1C[C@H]2CN(C(N)=O)C[C@@]2(C(=O)NCc2cc(F)cc(C(F)(F)F)c2)C1` (relative stereo) [Example 11, (3aR,5R,6aR)-N^3a-(3-Fluoro-5-(trifluoromethyl)benzyl)-5-(((3S*,4S*)-3-methoxytetrahydro-2H-pyran-4-yl)amino)hexahydrocyclopenta[c]pyrrole-2,3a(1H)-dicarboxamide], the IC50 worked out at 320 nM. As to `COC1COCCC1N[C@@H]1C[C@H]2CN(C(N)=O)C[C@@]2(C(=O)NCc2cc(C(F)(F)F)cc(C(F)(F)F)c2)C1` (relative stereo) [Example 12, (3aR,5R,6aR)-N^3a-(3,5-Bis(trifluoromethyl)benzyl)-5-(((3S*,4S*)-3-methoxytetrahydro-2H-pyran-4-yl)amino)hexahydrocyclopenta[c]pyrrole-2,3a(1H)-dicarboxamide], the half-inhibitory concentration (IC50) was determined as 100 nM. For `CNC(=O)N1C[C@@H]2C[C@@H](NC3CCOCC3OC)C[C@]2(C(=O)N2CCc3ncc(C(F)(F)F)cc3C2)C1` (relative stereo) [Example 13, (3aR,5R,6aR)-5-(((3S*,4S*)-(3-Methoxytetrahydro-2H-pyran-4-yl)amino)-N-methyl-3a-(3-(trifluoromethyl)-5,6,7,8-tetrahydro-1,6-naphthyridine-6-carbonyl)hexahydrocyclopenta-[c]pyrrole-2(1H)-carboxamide], the IC50 was determined as 80 nM. The same measure for `COC1COCCC1N[C@@H]1C[C@H]2CN(C(=O)NC(C)C)C[C@@]2(C(=O)N2CCc3ncc(C(F)(F)F)cc3C2)C1` (relative stereo) [Example 14, (3aR,5R,6aR)-N-Isopropyl-5-(((3S*,4S*)-(3-methoxytetrahydro-2H-pyran-4-yl)amino)-3a-(3-(trifluoromethyl)-5,6,7,8-tetrahydro-1,6-naphthyridine-6-carbonyl)hexahydrocyclopenta[c]pyrrole-2(1H)-carboxamide]: 410 nM; for `COC1COCCC1N[C@@H]1C[C@H]2CN(C(=O)NCC(C)C)C[C@@]2(C(=O)N2CCc3ncc(C(F)(F)F)cc3C2)C1` (relative stereo) [Example 15, (3aR,5R,6aR)-N-Isobutyl-5-(((3S*4S*)-(3-methoxytetrahydro-2H-pyran-4-yl)amino)-3a-(3-(trifluoromethyl)-5,6,7,8-tetrahydro-1,6-naphthyridine-6-carbonyl)hexahydrocyclopenta-[c]pyrrole-2(1H)-carboxamide]: 110 nM; for `COC1COCCC1N[C@@H]1C[C@H]2CN(C(=O)Nc3ccccc3)C[C@@]2(C(=O)N2CCc3ncc(C(F)(F)F)cc3C2)C1` (relative stereo) [Example 16, (3aR,5R,6aR)-5-(((3S*,4S*)-(3-methoxytetrahydro-2H-pyran-4-yl)amino)-N-phenyl-3a-(3-(trifluoromethyl)-5,6,7,8-tetrahydro-1,6-naphthyridine-6-carbonyl)hexahydrocyclopenta-[c]pyrrole-2(1H)-carboxamide]: 470 nM. As for `COC1COCCC1N[C@@H]1C[C@H]2CN(C(=O)NCc3ccccc3)C[C@@]2(C(=O)N2CCc3ncc(C(F)(F)F)cc3C2)C1` (relative stereo) [Example 17, (3aR,5R,6aR)-N-benzyl-5-(((3S*,4S*)-(3-methoxytetrahydro-2H-pyran-4-yl)amino)-3a-(3-(trifluoromethyl)-5,6,7,8-tetrahydro-1,6-naphthyridine-6-carbonyl)hexahydrocyclopenta-[c]pyrrole-2(1H)-carboxamide], the IC50 was determined as 60 nM. Consider `COC1COCCC1N[C@@H]1C[C@H]2CN(C(=O)NCC(C)(C)C)C[C@@]2(C(=O)N2CCc3ncc(C(F)(F)F)cc3C2)C1` (relative stereo) [Example 18, (3aR,5R,6aR)-5-(((3S*,4S*)-3-Methoxytetrahydro-2H-pyran-4-yl)amino)-N-neopentyl-3a-(3-(trifluoromethyl)-5,6,7,8-tetrahydro-1,6-naphthyridine-6-carbonyl)hexahydrocyclopenta[c]pyrrole-2(1H)-carboxamide], for which the IC50 was 410 nM. As for `COCCNC(=O)N1C[C@@H]2C[C@@H](NC3CCOCC3OC)C[C@]2(C(=O)N2CCc3ncc(C(F)(F)F)cc3C2)C1` (relative stereo) [Example 19, (3aR,5R,6aR)-N-(2-Methoxyethyl)-5-(((3S*,4S*)-3-methoxytetrahydro-2H-pyran-4-yl)amino)-3a-(3-(trifluoromethyl)-5,6,7,8-tetrahydro-1,6-naphthyridine-6-carbonyl)hexahydrocyclopenta[c]pyrrole-2(1H)-carboxamide], the figure is 380 nM. In the case of `COC1COCCC1N[C@@H]1C[C@H]2CN(C(=O)N(C)C)C[C@@]2(C(=O)N2CCc3ncc(C(F)(F)F)cc3C2)C1` (relative stereo) [Example 21, (3aR,5R,6aR)-5-(((3S*,4S*)-3-Methoxytetrahydro-2H-pyran-4-yl)amino)-N,N-dimethyl-3a-(3-(trifluoromethyl)-5,6,7,8-tetrahydro-1,6-naphthyridine-6-carbonyl)hexahydrocyclopenta[c]pyrrole-2(1H)-carboxamide], the IC50 is 220 nM. In the case of `COC1COCCC1N[C@@H]1C[C@H]2CN(C(=O)N3CCOCC3)C[C@@]2(C(=O)N2CCc3ncc(C(F)(F)F)cc3C2)C1` (relative stereo) [Example 22, ((3aR,5R,6aR)-5-(((3S*,4S*)-3-Methoxytetrahydro-2H-pyran-4-yl)amino)-2-(morpholine-4-carbonyl)octahydrocyclopenta[c]pyrrol-3a-yl)(3-(trifluoromethyl)-7,8-dihydro-1,6-naphthyridin-6(5H)-yl)methanone], the IC50 came to 420 nM. The same measure for `COC1COCCC1N[C@@H]1C[C@H]2CN(C(=O)n3ccnc3)C[C@@]2(C(=O)N2CCc3ncc(C(F)(F)F)cc3C2)C1` (relative stereo) [Example 23, ((3aR,5R,6aR)-2-(1H-Imidazole-1-carbonyl)-5-(((3S*,4S*)-3-methoxytetrahydro-2H-pyran-4-yl)amino)octahydrocyclopenta[c]pyrrol-3a-yl)(3-(trifluoromethyl)-7,8-dihydro-1,6-naphthyridin-6(5H)-yl)methanone]: 280 nM; for `COC1COCCC1N[C@@H]1C[C@H]2CN(C(=O)n3ccnc3)C[C@@]2(C(=O)N2CCc3ccc(C(F)(F)F)cc3C2)C1` (relative stereo) [Example 24, ((3aR,5R,6aR)-2-(1H-Imidazole-1-carbonyl)-5-(((3S*,4S*)-3-methoxytetrahydro-2H-pyran-4-yl)amino)octahydrocyclopenta[c]pyrrol-3a-yl)(7-(trifluoromethyl)-3,4-dihydroisoquinolin-2(1H)-yl)methanone]: 50 nM. The same measure for `COC1COCCC1N[C@@H]1C[C@H]2CN(C(N)=S)C[C@@]2(C(=O)N2CCc3ncc(C(F)(F)F)cc3C2)C1` (relative stereo) [Example 25, (3aR,5R,6aR)-5-(((3S*,4S*)-3-Methoxytetrahydro-2H-pyran-4-yl)amino)-3a-(3-(trifluoromethyl)-5,6,7,8-tetrahydro-1,6-naphthyridine-6-carbonyl)hexahydrocyclopenta-[c]pyrrole-2(1H)-carbothioamide]: 90 nM.
